Test results reported in US20120259007A1, “ANTICOAGULANT COMPOUNDS AND THEIR USE” (HAOMA MEDICA LIMITED, priority 2009, published 2012).

The molecules below were run against T1, recombinant human γ-carboxylase (Homo sapiens, UniProt P38435) (assay: Inhibition of recombinant human gamma-carboxylase (14CO2 incorporation, microsomes from High Five cells)). Details: in the presence of 220 μM vitamin K1 hydroquinone; compounds reduced to hydroquinone forms; n=1; read-out: IC50 against 220 μM vitamin K1.
T1 construct: made in house; host or cells: Trichoplusia ni High Five cells (microsomes)
T1 sequence (P38435 1-758): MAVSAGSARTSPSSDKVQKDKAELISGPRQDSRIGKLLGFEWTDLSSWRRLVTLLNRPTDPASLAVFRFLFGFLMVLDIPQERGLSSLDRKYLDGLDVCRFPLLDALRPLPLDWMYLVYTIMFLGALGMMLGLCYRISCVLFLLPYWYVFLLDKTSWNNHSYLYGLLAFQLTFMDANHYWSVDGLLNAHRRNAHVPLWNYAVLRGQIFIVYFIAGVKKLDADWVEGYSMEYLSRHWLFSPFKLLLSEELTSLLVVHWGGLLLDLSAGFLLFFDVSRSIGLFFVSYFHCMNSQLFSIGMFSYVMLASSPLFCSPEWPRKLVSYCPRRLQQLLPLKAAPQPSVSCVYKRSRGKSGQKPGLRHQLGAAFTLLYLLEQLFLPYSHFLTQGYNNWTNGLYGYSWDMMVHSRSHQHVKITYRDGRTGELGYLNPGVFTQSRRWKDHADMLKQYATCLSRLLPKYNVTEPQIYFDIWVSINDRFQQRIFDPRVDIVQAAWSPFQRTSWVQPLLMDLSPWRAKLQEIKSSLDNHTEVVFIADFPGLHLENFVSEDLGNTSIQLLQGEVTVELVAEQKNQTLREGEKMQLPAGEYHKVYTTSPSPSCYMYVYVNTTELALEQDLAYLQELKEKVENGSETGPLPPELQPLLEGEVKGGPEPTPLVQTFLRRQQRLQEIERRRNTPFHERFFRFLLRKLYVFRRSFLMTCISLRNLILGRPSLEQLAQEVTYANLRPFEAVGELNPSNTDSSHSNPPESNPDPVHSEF
Type: biochemical
Experimental: The compounds to be tested were reduced to their hydroquinone forms by the addition of 0.2 M DTT to a solution of the compounds in DMSO (giving a final v/v ratio of 1:3 DTT:DMSO) and overnight incubation in a water bath (37° C.).
In this assay a different microsomal preparation was used than the one described above. This microsomal preparation consists of microsomes prepared from Trichoplusia ni High Five cells that had had the cDNA for the human γ-carboxylase incorporated into their DNA. These microsomes were taken from stores that had been prepared as described by Houben, R. J., D. Jin, et al. (1999). “Osteocalcin binds tightly to the gamma-glutamylcarboxylase at a site distinct from that of the other known vitamin K-dependent proteins.” Biochem J 341 (Pt 2): 265-9.
Standard reaction mixtures contained 5 μl of microsomal preparation, 5 μl of 500 μM decarboxylated osteocalcin (d-OC) (except for the negative control tube), 25 μl of saturated ammonium sulphate solution, 5 μl of 5% PC/CHAPS. In addition to this, 1:3 (v/v) DMSO: 0.2 M DTT was added to the tubes (to take into account the fact that the compounds were dissolved in 1:3 DMSO: 0.2 M DTT) to give a total volume of 40 μl DMSO: 0.2 M DTT per tube. A solution of Buffer D was added to give all final tubes a uniform volume of 125 μl. The experiment was initiated by the addition of 10 μl of a 1:1 (v/v) mixture of vitamin K hydroquinone (final concentration of 220 μM) and NaH^14CO3 (final radioactivity of 5 μCi) to each tube, followed by a range of concentrations of the compounds.
In the case of CC1=C(C/C=C(\C)C(=O)O)C(=O)c2ccccc2C1=O [KCAT-5C (XIV), (2E)-4-(1,4-dihydro-2-methyl-1,4-dioxonaphthalen-3-yl)-2-methylbut-2-enoic acid], the IC50 is reported as 340 µM. With COC(=O)C(C)CCC1=C(C)C(=O)c2ccccc2C1=O (stereo not shown) [KCAT-5C-Me (XIX)] the IC50 was 514 µM. CC1=C(C/C=C(\C)CCC(=O)O)C(=O)c2ccccc2C1=O [NaQuinate (VIII), (4E)-6-(1,4-dihydro-2-methyl-1,4-dioxonaphthalen-3-yl)-4-methylhex-4-enoic acid] was tested, and the IC50 was 152 µM. COC(=O)CCC(C)=CCC1=C(C)C(=O)c2ccccc2C1=O [NaQuinate-Me (VII)] gave an IC50 of 358 µM. Work on COC(=O)CC/C(C)=C/CC1=C(C)C(=O)C(OC)=C(OC)C1=O [QCAT-Me (XVIII)] yielded an IC50 of 534 µM. With CC1=CC(=O)c2ccccc2C1=O [Vitamin K3 (III), menadione, reference compound] the IC50 was 460 µM.

What follows are molecules tested on Mice (assay: Observed anticoagulant activity (bleeding) in treated mice). Details: single injection 15 μg/mouse/day intraperitoneally in 10% ethanol in saline.
Type: in vivo
Experimental: Mice were treated with one compound of the present invention (4E)-6-(1,4-dihydro-2-methyl-1,4-dioxonaphthalen-3-yl)-4-methylhex-4-enoic acid (VIII) [also called NaQuinate herein] in the form of a single injection (15 μg/mouse/day) administered in 10% ethanol in saline injections intraperitoneally. Control mice received the carrier but not the NaQuinate active component.
With CC1=C(C/C=C(\C)CCC(=O)O)C(=O)c2ccccc2C1=O [NaQuinate (VIII), (4E)-6-(1,4-dihydro-2-methyl-1,4-dioxonaphthalen-3-yl)-4-methylhex-4-enoic acid] the “bleeding compared with mice not treated (anticoagulant effect)” value was “bleed out much more profusely”.
